The text below walks through data of ChEMBL document CHEMBL1201862, “PubChem BioAssay data set” (2004).

The structures appear in SMILES notation.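 Values below derive from 48-hour exposures of cells grown in 96-well plates, with endpoints linearly interpolated between the two concentrations bracketing the appropriate inhibition level. GI50 = concentration required for 50% inhibition of growth.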 The source made the active and inactive calls. No stated cut-off is given here; in the data, active = GI50 up to about 1.1 µM and inactive = higher.

Test systems include 786-0; A549; BT-549; CAKI-1; CCRF-CEM; HCC 2998; HOP-92; Hs-578T; KM12; MDA-MB-231; MDA-MB-435; MDA-N; MOLT-4; Malme-3M; NCI/ADR-RES; RPMI-8226; SK-MEL-5; SNB-19; U-251; NCI-H226.
What all share (assay): inhibition of tumour cell growth, NCI panel, 48 h

As to `O=C1Nc2ccccc2/C1=N/NC(=S)Nc1ccc([N+](=O)[O-])cc1`, the GI50 is 4.81 µM (inactive) with 786-0; 6.9 µM (inactive) in the assay with A549; 14.4 µM (inactive) in the assay with BT-549; 6.07 µM (inactive) in the assay with CAKI-1; 1.53 µM (inactive) in the assay on CCRF-CEM; 11.3 µM (inactive) with HCC 2998. The GI50 was 13.2 µM (inactive) in the assay on HOP-92; 15.6 µM (inactive) in the assay with Hs-578T; 10.8 µM (inactive) with KM12; 0.208 µM (active) with MDA-MB-231; 6.19 µM (inactive) in the assay on MDA-MB-435; 11.4 µM (inactive) in the assay on MDA-N. For the same compound, the GI50 with MOLT-4 is 2.28 µM (inactive); with Malme-3M it was 5.28 µM (inactive); with NCI/ADR-RES, 3.01 µM (inactive); in the assay on RPMI-8226, 13.5 µM (inactive); with SK-MEL-5, 10.4 µM (inactive); in the assay with SNB-19 it was 10.7 µM (inactive). For the same compound, the GI50 in the assay on U-251 is 5.85 µM (inactive).
Consider `COc1ccc(-n2c(CCCC(=O)O)nc3c2C(=O)c2ccccc2C3=O)cc1`, for which the GI50 in the assay on 786-0 is > 100 µM (inactive); in the assay with A549, > 100 µM (inactive); with BT-549, 8.79 µM (inactive); with CAKI-1, > 100 µM (inactive); in the assay on CCRF-CEM, 36.3 µM (inactive); in the assay with HCC 2998, 84.7 µM (inactive). In addition, the GI50 was 20.2 µM (inactive) in the assay with HOP-92; > 100 µM (inactive) in the assay with Hs-578T; 64.1 µM (inactive) in the assay with KM12; 63.5 µM (inactive) in the assay with MDA-MB-231; 26.4 µM (inactive) in the assay on MDA-MB-435; 31.4 µM (inactive) in the assay with MDA-N. In addition, the GI50 in the assay on MOLT-4 is 68.1 µM (inactive); in the assay on Malme-3M it was 15.2 µM (inactive); in the assay on NCI/ADR-RES, > 100 µM (inactive); in the assay on RPMI-8226, 36.3 µM (inactive); with SNB-19, > 100 µM (inactive); in the assay with U-251, > 100 µM (inactive).
Turning to `C=CCC1(O)c2cccc(O)c2C(=O)c2cccc(O)c21` (stereo not given), the GI50 is 19.3 µM (inactive) in the assay with 786-0; 15.8 µM (inactive) in the assay on A549; 16.8 µM (inactive) in the assay on BT-549; 21.7 µM (inactive) with CAKI-1; 11 µM (inactive) with HCC 2998; 17.5 µM (inactive) in the assay with HOP-92. Besides, the GI50 was 14.9 µM (inactive) with Hs-578T; 17.3 µM (inactive) with KM12; 21.1 µM (inactive) in the assay with MDA-MB-231; 9.38 µM (inactive) with MDA-MB-435; 8.22 µM (inactive) with MDA-N; 11.3 µM (inactive) in the assay on MOLT-4. Also, the GI50 was 22.3 µM (inactive) in the assay with NCI-H226; 11.2 µM (inactive) in the assay on NCI/ADR-RES; 11.5 µM (inactive) with RPMI-8226; 10.7 µM (inactive) with SK-MEL-5; 11.9 µM (inactive) in the assay on U-251.
As to `NC(=O)/C=c1/c2ccccc2n2nc3ccccc3c12`, the GI50 in the assay with 786-0 was 8.67 µM (inactive); with A549, 31.7 µM (inactive); in the assay with BT-549, 29.9 µM (inactive); in the assay on CAKI-1 it was 20.1 µM (inactive); in the assay with CCRF-CEM, 3.56 µM (inactive); with HCC 2998, 17 µM (inactive). Besides, the GI50 with Hs-578T is 31.2 µM (inactive); in the assay with KM12, 14.3 µM (inactive); with MDA-MB-231, 2.76 µM (inactive); with MDA-MB-435, 16 µM (inactive); with MDA-N, 15.6 µM (inactive); in the assay on MOLT-4 it was 2.69 µM (inactive). Moreover, the GI50 with Malme-3M is 21.9 µM (inactive); in the assay on NCI/ADR-RES it was 16.1 µM (inactive); in the assay on RPMI-8226 it was 4.98 µM (inactive); in the assay on SK-MEL-5, 35.6 µM (inactive); in the assay with SNB-19, 20.1 µM (inactive); in the assay with U-251 it was 12.9 µM (inactive).
In the case of `O=c1oc2c(Cl)cc(Cl)cc2cc1-c1cn2c(n1)sc1ccccc12`, the GI50 in the assay with 786-0 is 32.9 µM (inactive); in the assay with A549 it was > 100 µM (inactive); with BT-549 it was 28.6 µM (inactive); in the assay with CAKI-1 it was 71.6 µM (inactive); in the assay on CCRF-CEM it was 17.3 µM (inactive); in the assay with HCC 2998 it was 24.5 µM (inactive). The GI50 in the assay with HOP-92 is 56.1 µM (inactive); with Hs-578T, > 100 µM (inactive); in the assay with KM12, > 100 µM (inactive); in the assay with MDA-MB-231 it was 28.4 µM (inactive); with MDA-MB-435, 38.4 µM (inactive); in the assay with MDA-N it was 38.6 µM (inactive). Moreover, the GI50 was 20.4 µM (inactive) with MOLT-4; > 100 µM (inactive) in the assay with Malme-3M; > 100 µM (inactive) in the assay on NCI/ADR-RES; 24.7 µM (inactive) in the assay on RPMI-8226; 39.2 µM (inactive) with SK-MEL-5; > 100 µM (inactive) with SNB-19. Besides, the GI50 in the assay on U-251 is > 100 µM (inactive).
In the case of `Cc1ccc(C(=O)CCC2C(=O)CC(C)(C)CC2=O)cc1`, the GI50 in the assay on 786-0 was > 100 µM (inactive); with A549, > 100 µM (inactive); in the assay with BT-549, > 100 µM (inactive); in the assay with CAKI-1 it was 17.5 µM (inactive); with CCRF-CEM, 24.5 µM (inactive); in the assay on HCC 2998 it was > 100 µM (inactive). In addition, the GI50 in the assay with HOP-92 is 44.9 µM (inactive); in the assay with Hs-578T, > 100 µM (inactive); with KM12, > 100 µM (inactive); in the assay on MDA-MB-231, > 100 µM (inactive); in the assay with MDA-MB-435, > 100 µM (inactive); with MDA-N, > 100 µM (inactive). In addition, the GI50 with MOLT-4, in the assay with NCI-H226, with NCI/ADR-RES, in the assay with SK-MEL-5, in the assay with SNB-19 and in the assay with U-251 was > 100 µM (inactive) in each case.
Regarding `CO[C@]12S[C@@H]3CCCC[C@@]31C(C)(C)C(=O)N2c1ccccc1`, the GI50 in the assay with 786-0 is 43.2 µM (inactive); in the assay with A549 it was 67.3 µM (inactive); in the assay on BT-549, 27.4 µM (inactive); with CAKI-1, 48.5 µM (inactive); with CCRF-CEM it was 13.5 µM (inactive); in the assay with HCC 2998, 51.2 µM (inactive). The GI50 in the assay on HOP-92 was 38 µM (inactive); in the assay on Hs-578T, 75 µM (inactive); with KM12, 36.7 µM (inactive); with MDA-MB-231 it was 42.2 µM (inactive); with MDA-MB-435, 33.7 µM (inactive); with MDA-N, 42.2 µM (inactive). In addition, the GI50 in the assay on MOLT-4 was 21.7 µM (inactive); in the assay with Malme-3M, > 100 µM (inactive); in the assay with NCI/ADR-RES, 23 µM (inactive); in the assay with RPMI-8226 it was 24.7 µM (inactive); in the assay on SK-MEL-5, 20.5 µM (inactive); with SNB-19, > 100 µM (inactive). Further, the GI50 with U-251 is 26.6 µM (inactive).
For `Cc1ccc(NC(=O)/C(CC2Nc3c(ccc4c3C(=O)c3ccccc3C4=O)NC2O)=N/NC(C)(C)C)cc1` (stereo not given), the GI50 was 4.52 µM (inactive) in the assay on 786-0; 16.1 µM (inactive) with A549; 22 µM (inactive) with BT-549; 8.3 µM (inactive) with CAKI-1; 1.36 µM (inactive) with CCRF-CEM; 22.6 µM (inactive) in the assay with HCC 2998. Also, the GI50 was 16.8 µM (inactive) in the assay with HOP-92; 9.4 µM (inactive) in the assay with Hs-578T; 8.85 µM (inactive) in the assay with KM12; 3.42 µM (inactive) with MDA-MB-231; 17.7 µM (inactive) in the assay with MDA-MB-435; 14.1 µM (inactive) in the assay on MDA-N. Further, the GI50 in the assay on MOLT-4 was 2.37 µM (inactive); in the assay on NCI/ADR-RES, 1.67 µM (inactive); in the assay on SK-MEL-5, 5.6 µM (inactive); in the assay on SNB-19 it was 28 µM (inactive); in the assay with U-251, 14.1 µM (inactive).
For the compound `O=C1Nc2ccccc2/C1=N/Nc1nc(-c2cccc([N+](=O)[O-])c2)cs1`, the GI50 in the assay on 786-0 was 16.3 µM (inactive); with A549, 20.1 µM (inactive); in the assay with BT-549 it was 36.3 µM (inactive); in the assay with CAKI-1 it was 19.2 µM (inactive); in the assay with CCRF-CEM, 32.8 µM (inactive); in the assay with HCC 2998, 18.1 µM (inactive). Besides, the GI50 was 20.1 µM (inactive) in the assay with HOP-92; 20.1 µM (inactive) with Hs-578T; 26.3 µM (inactive) in the assay on KM12; 17.7 µM (inactive) in the assay on MDA-MB-231; 34.4 µM (inactive) with MDA-MB-435; 31.1 µM (inactive) in the assay with MDA-N. Besides, the GI50 with MOLT-4 is 31.5 µM (inactive); in the assay on NCI-H226 it was 19.2 µM (inactive); with NCI/ADR-RES it was 15.3 µM (inactive); with SK-MEL-5 it was 20.2 µM (inactive); in the assay on SNB-19, 26.7 µM (inactive); in the assay on U-251, 21.4 µM (inactive).
As for `O=S(=O)(O)c1cc(S(=O)(=O)O)c2cc(/N=N/c3c(O)ccc4ccccc34)ccc2c1`, the GI50 in the assay on 786-0, in the assay with A549, in the assay with BT-549, in the assay on CAKI-1, in the assay with CCRF-CEM and in the assay with HOP-92 was > 100 µM (inactive) each time. The GI50 in the assay on Hs-578T, in the assay with KM12, in the assay with MDA-MB-231, in the assay on MDA-MB-435, in the assay on MDA-N and in the assay with MOLT-4 was > 100 µM (inactive) in each case. In addition, the GI50 is 50.7 µM (inactive) in the assay with Malme-3M; > 100 µM (inactive) with NCI-H226; > 100 µM (inactive) with NCI/ADR-RES; > 100 µM (inactive) in the assay on RPMI-8226; > 100 µM (inactive) in the assay on SK-MEL-5; > 100 µM (inactive) with SNB-19. Also, the GI50 in the assay with U-251 was > 100 µM (inactive).
Regarding `CCC(=O)N(c1ccccc1)C(C)CN1CCC(O)(c2ccccc2)CC1` (stereo not given), the GI50 with 786-0, with A549, in the assay with BT-549, in the assay on CAKI-1, in the assay with CCRF-CEM and with HOP-92 was > 100 µM (inactive) throughout. The GI50 with Hs-578T, in the assay on MDA-MB-231, with MDA-MB-435, in the assay with MDA-N, in the assay with MOLT-4 and in the assay with Malme-3M was > 100 µM (inactive) in each case. In addition, the GI50 with NCI-H226, in the assay with NCI/ADR-RES, in the assay with RPMI-8226, with SK-MEL-5, in the assay with SNB-19 and in the assay on U-251 was > 100 µM (inactive) each time.
